The source made the active and inactive calls. The rule behind the calls is not given here.

The subject of one assay is Escherichia coli. The experiment in a line: Antimicrobial activity against Escherichia coli ATCC 9637 at 100 mcg/mL by agar dilution-streak method. The assay is classed as functional, organism-based. (In agar dilution, organisms are placed on agar that contains the substance at set levels.)
Assay [1] has as its system Salmonella enterica subsp. enterica serovar Gallinarum. The experiment in a line: Antimicrobial activity against Salmonella gallinarum ATCC 9184 at 100 mcg/mL by agar dilution-streak method. The format is functional, organism-based.
Assay [2] deals with Staphylococcus aureus. The experiment in a line: Antimicrobial activity against Staphylococcus aureus ATCC 13709 by agar dilution-streak method. The assay is classed as functional.
The test system of assay [3] is Candida albicans. Briefly: Antimicrobial activity against Candida albicans ATCC 10231 by agar dilution-streak method. The assay is classed as functional.
The subject of assay [4] is Klebsiella pneumoniae. Briefly: Antimicrobial activity against Klebsiella pneumoniae ATCC 10031 by agar dilution-streak method. The assay is classed as functional.
In assay [5] the test system is Mycolicibacterium smegmatis. Briefly: Antimicrobial activity against Mycobacterium smegmatis ATCC 607 by agar dilution-streak method. The format is functional.
For assay [6], the system named is Staphylococcus aureus. Briefly: Antimicrobial activity against Staphylococcus aureus ATCC 13709 at 100 mcg/mL by agar dilution-streak method. The format is functional, organism-based.
Assay [7] concerns Candida albicans. The experiment in a line: Antimicrobial activity against Candida albicans ATCC 10231 at 100 mcg/mL by agar dilution-streak method. The format is functional, organism-based.
Assay [8] relates to Klebsiella pneumoniae. The experiment in a line: Antimicrobial activity against Klebsiella pneumoniae ATCC 10031 at 100 mcg/mL by agar dilution-streak method. The format is functional, organism-based.
In assay [9] the test system is Mycolicibacterium smegmatis. Briefly: Antimicrobial activity against Mycobacterium smegmatis ATCC 607 at 100 mcg/mL by agar dilution-streak method. The format is functional, organism-based.

Regarding `COc1c2ccc(-c3ccccc3)oc-2cc(=O)c1C` [DRACORHODIN], the result (with Escherichia coli; in assay [1]) was inactive. For the same compound, the Activity in the assay on Staphylococcus aureus [2] was 50 µg/mL; in the assay on Candida albicans [3], 25 µg/mL; in the assay with Klebsiella pneumoniae [4] it was 100 µg/mL; in assay [5] it was 25 µg/mL.

As to `COc1cc(O)cc2c1CC[C@H](c1ccccc1)O2`, the result (in the assay on Escherichia coli; in assay [1]; in the assay on Staphylococcus aureus [6]; in the assay with Candida albicans [7]; in the assay with Klebsiella pneumoniae [8]; in [9]) was inactive.

On to `COc1cc(=O)cc2oc(-c3ccccc3)ccc1-2`, for which the result (with Escherichia coli; in assay [1]; in the assay with Staphylococcus aureus [6]; in the assay on Candida albicans [7]; with Klebsiella pneumoniae [8]; in assay [9]) was inactive.

Take `COc1cc2oc3cc(=O)cc4oc(-c5ccccc5)cc(c2c2c1CC[C@@H](c1ccccc1)O2)c43`: the result (with Escherichia coli; in assay [1]; in the assay on Staphylococcus aureus [6]; in the assay with Candida albicans [7]; in the assay with Klebsiella pneumoniae [8]; in assay [9]) was inactive.

For the compound `COc1cc2oc3c(C)c(=O)cc4oc(-c5ccccc5)cc(c2c2c1CC[C@@H](c1ccccc1)O2)c43` [DRACORUBIN], the outcome (in the assay on Escherichia coli; in assay [1]; with Klebsiella pneumoniae [8]) was inactive. Besides, the values for the Activity (with Staphylococcus aureus [2]; in the assay on Candida albicans [3]; in [5]) were 50 µg/mL, 12.5 µg/mL and 25 µg/mL, respectively.
